These results are taken from US20260116920A1, “HUMAN TRANSFERRIN RECEPTOR BINDING PEPTIDE” (PEPTIDREAM INC., priority 2021, published 2026).

The assay deals with T1, human transferrin receptor (hTfR) (Homo sapiens, UniProt P02786).
T1 construct: made in house
As to the kind of experiment: Evaluation of molecular interaction between transferrin receptor (hTfR) and peptide using surface plasmon resonance (SPR). Format: binding. Conditions: surface plasmon resonance, binding to hTfR; KD class symbol; read-out: SPR (KD value). In short, it runs like this:
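KD values are derived by least-squares fitting of single-cycle kinetic sensorgrams. Peptide series (5–100 nM) flows over recombinant hTfR dimer immobilized on a Ni-NTA chip by EDC/NHS coupling, in pH 8.0 HEPES buffer containing 0.1% BSA and 1.0% DMSO.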

Positions of bridges follow the written chain, without caps; N, C: chain ends. Non-standard residues stand in square brackets, D forms with d. Residues, ends and D or L forms follow the SMILES beside them. *: point of attachment. Trp(1-CH2COOH) = N[C@@H](Cc1cn(CC(=O)O)c2ccccc12)C(=O)O; Phe(3-COOH) = N[C@@H](Cc1cccc(C(=O)O)c1)C(=O)O; NH(CH2CH2O)8Me = COCCOCCOCCOCCOCCOCCOCCOCCN*; NMePhe(3-Cl) = CN[C@@H](Cc1cccc(Cl)c1)C(=O)O; 3Pal(6-NH2) = Nc1ccc(C[C@H](N)C(=O)O)cn1; NMeY = CN[C@@H](Cc1ccc(O)cc1)C(=O)O; 3Pal = N[C@@H](Cc1cccnc1)C(=O)O; PEG4 = NCCOCCOCCOCCOCCC(=O)O

T1 sequence (P02786 89-760 limits assumed): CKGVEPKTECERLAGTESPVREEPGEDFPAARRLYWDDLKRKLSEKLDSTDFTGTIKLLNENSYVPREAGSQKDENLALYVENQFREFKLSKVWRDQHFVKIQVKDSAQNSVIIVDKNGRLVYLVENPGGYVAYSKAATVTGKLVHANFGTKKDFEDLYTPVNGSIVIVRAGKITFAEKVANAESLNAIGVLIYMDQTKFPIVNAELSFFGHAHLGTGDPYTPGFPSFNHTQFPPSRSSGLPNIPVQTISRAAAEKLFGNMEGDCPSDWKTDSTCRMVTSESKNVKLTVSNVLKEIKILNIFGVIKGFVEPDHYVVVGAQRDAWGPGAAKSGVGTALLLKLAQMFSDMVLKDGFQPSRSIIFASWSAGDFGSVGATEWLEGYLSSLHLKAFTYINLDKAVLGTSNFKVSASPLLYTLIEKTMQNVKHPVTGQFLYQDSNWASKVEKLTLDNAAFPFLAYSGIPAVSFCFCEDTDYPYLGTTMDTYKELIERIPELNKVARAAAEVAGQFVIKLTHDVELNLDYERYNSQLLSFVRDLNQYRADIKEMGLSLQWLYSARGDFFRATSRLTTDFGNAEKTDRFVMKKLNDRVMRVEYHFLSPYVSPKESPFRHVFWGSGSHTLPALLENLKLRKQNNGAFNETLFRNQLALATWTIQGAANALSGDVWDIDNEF

Regarding `CC[C@H](C)[C@@H]1NC(=O)[C@H](Cc2ccc(OC)cc2)NC(=O)[C@H](Cc2ccc(N)nc2)NC(=O)[C@H](CC(N)=O)NC(=O)[C@H](Cc2cn(CC(=O)O)c3ccccc23)NC(=O)[C@H](C(C)C)NC(=O)[C@H](Cc2cccc(Cl)c2)N(C)C(=O)[C@H](C(C)C)NC(=O)[C@H](C)NC(=O)CSC[C@@H](C(=O)NCCOCCOCCOCCOCCC(N)=O)NC(=O)[C@H](Cc2ccc(O)cc2)N(C)C(=O)[C@H](Cc2cccc(C(=O)O)c2)NC(=O)[C@H](CCCNC(=N)N)NC(=O)[C@H](CCCNC(=N)N)NC(=O)[C@H]([C@@H](C)CC)NC1=O` [compound 72] ({CH2CO}-AV[NMePhe(3-Cl)]V[Trp(1-CH2COOH)]N[3Pal(6-NH2)]Y(Me)IIRR[Phe(3-COOH)][NMeY]C[PEG4]-NH2; thioether N-15), the Kd was in the range of 1 to 100 nM.
For `CC[C@H](C)[C@@H]1NC(=O)[C@H](Cc2cccnc2)NC(=O)[C@H](Cc2ccc(O)cc2)NC(=O)[C@H](CC(N)=O)NC(=O)[C@H](Cc2cn(CC(=O)O)c3ccccc23)NC(=O)[C@H](C(C)C)NC(=O)[C@H](Cc2cccc(Cl)c2)N(C)C(=O)[C@H](C(C)C)NC(=O)[C@H](C)NC(=O)CSC[C@@H](C(=O)NCCOCCOCCOCCOCCC(N)=O)NC(=O)[C@H](Cc2ccc(O)cc2)N(C)C(=O)[C@H](Cc2ccccc2)NC(=O)[C@H](CCC(=O)NCCOCCOCCOCCOCCOCCOCCOCCOC)NC(=O)[C@H](CCCNC(=N)N)NC(=O)[C@H]([C@@H](C)CC)NC1=O` [compound 73] ({CH2CO}-AV[NMePhe(3-Cl)]V[Trp(1-CH2COOH)]NY[3Pal]IIRE(NH(CH2CH2O)8Me)F[NMeY]C[PEG4]-NH2; thioether N-15), the Kd was 1 to 100 nM.
Turning to `CC[C@H](C)[C@@H]1NC(=O)[C@H](Cc2cccnc2)NC(=O)[C@H](Cc2ccc(O)cc2)NC(=O)[C@H](CC(N)=O)NC(=O)[C@H](Cc2cn(CC(=O)O)c3ccccc23)NC(=O)[C@H](C(C)C)NC(=O)[C@H](Cc2cccc(Cl)c2)N(C)C(=O)[C@H](C(C)C)NC(=O)[C@H](C)NC(=O)CSC[C@@H](C(=O)NCCOCCOCCOCCOCCC(N)=O)NC(=O)[C@H](Cc2ccc(O)cc2)N(C)C(=O)[C@H](Cc2cccc(C(=O)O)c2)NC(=O)[C@H](CCCNC(=N)N)NC(=O)[C@H](CCCNC(=N)N)NC(=O)[C@H]([C@@H](C)CC)NC1=O` [compound 74] ({CH2CO}-AV[NMePhe(3-Cl)]V[Trp(1-CH2COOH)]NY[3Pal]IIRR[Phe(3-COOH)][NMeY]C[PEG4]-NH2; thioether N-15), the Kd was 1 to 100 nM.
As for `CC[C@H](C)[C@@H]1NC(=O)[C@H](Cc2ccc(OCC(=O)O)cc2)NC(=O)[C@H](Cc2ccc(O)cc2)NC(=O)[C@H](CC(N)=O)NC(=O)[C@H](Cc2cn(CC(=O)O)c3ccccc23)NC(=O)[C@H](C(C)C)NC(=O)[C@H](Cc2cccc(Cl)c2)N(C)C(=O)[C@H](C(C)C)NC(=O)[C@H](C)NC(=O)CSC[C@@H](C(=O)NCCOCCOCCOCCOCCC(N)=O)NC(=O)[C@H](Cc2ccc(O)cc2)N(C)C(=O)[C@H](Cc2cccc(C(=O)O)c2)NC(=O)[C@H](CCCNC(=N)N)NC(=O)[C@H](CCCNC(=N)N)NC(=O)[C@H]([C@@H](C)CC)NC1=O` [compound 75], the Kd fell in the range of 1 to 100 nM.
As for `CC[C@H](C)[C@@H]1NC(=O)[C@H](Cc2ccc(OCC(=O)O)cc2)NC(=O)[C@H](Cc2ccc(O)cc2)NC(=O)[C@H](CC(N)=O)NC(=O)[C@H](Cc2cn(CC(=O)O)c3ccccc23)NC(=O)[C@H](C(C)C)NC(=O)[C@H](Cc2cccc(Cl)c2)N(C)C(=O)[C@H](C(C)C)NC(=O)[C@H](C)NC(=O)CSC[C@@H](C(=O)NCCOCCOCCOCCOCCC(N)=O)NC(=O)[C@H](Cc2ccc(O)cc2)N(C)C(=O)[C@H](Cc2ccncc2)NC(=O)[C@H](CCCNC(=N)N)NC(=O)[C@H](CCCNC(=N)N)NC(=O)[C@H]([C@@H](C)CC)NC1=O` [compound 76], the Kd was 1 to 100 nM.
